Test system: LPS-induced release of TNFα from human macrophages from healthy donors
Assay: ELISA-based TNFα release assay, human macrophages from healthy donors
Type: cell-based
Conditions: Macrophage, recombinant murine antibodies, final concentration of 10 µg/ml, Batimastat 10 μM, LPS 5 ng/ml, 2 hours
Experimental: Complementary to Example 32 described above, ELISA-based TNFα release assays were performed to test the inhibitory effects of the antibodies on LPS-induced release of endogenous TNFα from human macrophages from healthy donors.
To obtain human macrophages, peripheral blood mononuclear cells (PBMCs) from 4 healthy donors were used. Cells from 5 ml human blood were resuspended in 20 ml of DMEM medium (Corning, USA) supplemented with 10% FCS (Atlanta Biological, USA) and Penicillin/Streptomycin (Corning, USA) (DMEM/FCS) and were then incubated on two 10 cm petri dishes (Thermo Fisher, USA) at 37° C., 5% CO2 for 3h. Non-adherent cells were subsequently removed and 6 ml of DMEM/FCS supplemented with 10 ng/ml human MCSF (Peprotech, USA) (DMEM/FCS/MCSF) was added per plate. Both plates were incubated at 37° C., 5% CO2 for 2 days, then 2 ml of DMEM/FCS/MCSF was added to each plate on day 2 and 4. On day 5, all medium was removed and attached cells were washed once with 5 ml PBS (Corning, USA). 2 ml of Accutase (Promocell, USA) solution was added to each plate and incubated at 37° C. for 15 min. 10 ml of DMEM/FCS was added to each plate and detached cells were collected in a 15 ml Falcon tube. Cells were subsequently pelleted in a tabletop centrifuge (Eppendorf, USA) at 1,500 rpm for 5 min. […] 10 μl from this cell suspension was manually counted in a hemocytometer (Thermo Fisher, USA). […]

For `CNC(=O)[C@H](Cc1ccccc1)NC(=O)[C@H](CC(C)C)[C@H](CSc1cccs1)C(=O)NO` [Batimastat], which inhibition at 10 µM is on record?
Its inhibition at 10 µM is 68.3%.
